Assay [1] has as its target T1, aromatase enzyme (Homo sapiens, UniProt P11511).
T1 sequence (P11511 1-503): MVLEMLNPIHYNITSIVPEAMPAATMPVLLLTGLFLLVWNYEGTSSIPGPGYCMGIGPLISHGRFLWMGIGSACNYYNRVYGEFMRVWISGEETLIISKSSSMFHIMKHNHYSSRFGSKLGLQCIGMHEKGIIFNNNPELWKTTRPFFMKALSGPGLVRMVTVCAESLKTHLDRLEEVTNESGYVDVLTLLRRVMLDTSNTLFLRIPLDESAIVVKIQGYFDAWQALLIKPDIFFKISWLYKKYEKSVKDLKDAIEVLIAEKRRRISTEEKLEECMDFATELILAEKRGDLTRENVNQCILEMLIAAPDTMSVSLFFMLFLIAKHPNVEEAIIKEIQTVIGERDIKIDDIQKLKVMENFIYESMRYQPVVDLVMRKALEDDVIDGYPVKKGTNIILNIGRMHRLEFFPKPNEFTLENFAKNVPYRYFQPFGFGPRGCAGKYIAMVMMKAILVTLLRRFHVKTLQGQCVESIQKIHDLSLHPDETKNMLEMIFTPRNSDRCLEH
As to conditions: inhibitor binding to the aromatase enzyme; from "recent studies"; cited from earlier work.

The target in assay [2] is T1, aromatase enzyme. As to the kind of experiment: aromatase enzyme inhibition (Ki). Type of assay: biochemical. The protocol:
ATD acts as a suicide substrate by irreversibly binding to the aromatase enzyme and shutting down its activity. Because it is a non-androgenic compound, ATD has fewer side effects associated with anabolic/androgenic steroid use. […] A lower Ki value means the inhibitor binds more tightly to the enzyme and yields greater potency. […] Because it is administered in smaller doses, costs of use of ATD may also be lower. The savings may be passed on to the consumer and/or provide greater profits to the manufacturer. Additionally, with oral or percutaneous/transdermal doses of 25 mg to 150 mg per day in men, ATD will cause a significant increase in endogenous androgen levels with little or no decrease in endogenous estrogen.

Results on two compounds are retold here after patent US7939517B2, “1,4,6-androstatriene-3,17-dione (“ATD”) for therapeutic uses” (priority 2004, dated 2011).

What is called Ki is the dissociation constant of the complex between target and ligand, obtained from inhibition or displacement. `C[C@]12CCC(=O)C=C1C(=O)C[C@@H]1[C@@H]2CC[C@]2(C)C(=O)CC[C@@H]12` [AT, androst-4-ene-3,6,17-trione]: the Ki on aromatase enzyme [1] was 430 nM. `C[C@]12C=CC(=O)C=C1C=C[C@@H]1[C@@H]2CC[C@]2(C)C(=O)CC[C@@H]12` [ATD, 1,4,6-androstatriene-3,17-dione]: at aromatase enzyme [2], the “ratio of the Ki values (AT concentration relative to ATD for the same effect)” value is given as 2.39 times.
